Test results taken from patent publication US6479466B1, “Compositions for treating viral infections, and methods therefor” (University of Maryland, priority 1999, dated 2002).
Where a name gives a salt, the structure may show the parent alone. Read-outs that look alike come from different tables or passages of the source. Blank lines part the entries; values can stand above or below the molecule they belong to.

What was measured:
PHA-stimulated PBMCs = assay: MTT cell proliferation assay in PHA-stimulated PBMCs; assay type: cell-based, human; conditions: human, 5 days, 100 μM
Protocol: The effect of RV and […] on PBMC proliferation at the concentrations shown to enhance the anti-HIV effect of ddI were examined. Cellular proliferation in culture in the presence or absence of drugs was measured by commercial MTT assay, according to the manufacturer's instructions (Boehringer Mannheim). Cell viability was determined by trypan blue staining.
Proliferation was measured on PHA-stimulated PBMCs cultured in the presence of IL-2, 2 μM ddI, and RV or HU. The MTT assay was performed on days 2 and 5 (FIG. 8), and days 2 and 7 (FIG. 20) after the addition of the drugs. […] On day 5, RV at 10 μM inhibited proliferation by 30%, whereas HU inhibited proliferation by 40 to 50%, depending on the donor.
Proliferating PBMCs were cultured in the presence of RV or HU for 5 days. On day 2 and 5 an MTT assay and a ^3H-thymidine incorporation assay were performed. The MTT is a […] assay that measures cellular metabolic activity and directly correlates to the number of cells in the culture. The ^3H-thymidine incorporation assay relies on the incorporation of the radioactive nucleoside ^3H-thymidine into newly synthesized DNA. […] These differences between the effects of RV and HU were even more striking in the MTT and ^3H-thymidine incorporation assays conducted on day 5 (FIG. 12 and FIG. 13, respectively).

HTLV-IIIB [1] = assay: p24 antigen production in PHA-activated PBMCs infected with HTLV-IIIB; assay type: cell-based, HIV-1; conditions: for IC90: read-out: IC90 (concentration of nucleoside analog that reduced the p24 antigen value of the untreated control by 90%)
Excerpt: The antiviral activities of RV alone and in combination with nucleoside analogs were investigated in PHA-stimulated PBMCs from seronegative donors. RV, ddC, ddI, and AZT were purchased from Sigma (St. Louis, Mo.). The HIV-1 T-cell line adapted isolate HTLV-IIIB was obtained from Dr. Gallo, at the National Institutes of Health AIDS Research and Reference Reagent Program (Catalog #398, Rockville, Md.). Primary strains of HIV-1 were isolated by coculturing 10^7 patient PBMC with an equal number of PHA-stimulated PBMC from a normal donor. Titration of stocks and MT-2 phenotype determination were carried out as described (ACTG Virology Manual, NIH Pub No. 94 3828, 1994). The SI phenotype was determined by assessing viral growth and syncytia formation in the MT-2 cell line obtained from Dr. Richman at the National Institutes of Health AIDS Research and Reference Reagent Program (Catalog #237, Rockville, Md.).
Primary PBMCs were separated from whole blood of HIV seronegative donors by density centrifugation over Ficoll-Hypaque (Sigma). The culture medium consisted of RPMI supplemented with 10% fetal bovine serum (FBS), 2 mM glutamine and penicillin/streptomycin (Gibco, Grand Island, N.Y.).
For infection studies involving PBMCs, cells were stimulated with 2.5 or 10 μg/ml phytohemagglutinin (PHA; Boehringer Mannheim, Indianapolis, Ind.) for 3 days. Stimulated PBMCs were infected by incubation with virus at a multiplicity of infection of 1000 TCID50/10^6 PBMC for 2 hours. PBMCs were then washed three times with PBS and cultured in 5% CO2 at 37° C., in RPMI/10% FBS supplemented with 10 units/ml IL-2 (Boehringer Mannheim) and drugs as appropriate. PBMCs were seeded in 96-well flat-bottom plates at a density of 2×10^5 PBMCs/200 μl. Following 3 days of culture half of the medium was replaced with fresh medium containing IL-2 and drugs. After 7 days of culture, HIV-1 p24 antigen production in the culture supernatant was assayed by ELISA (Coulter, Hialeah, Fla.). The concentration of nucleoside analog, alone and in combination with resveratrol, that reduced the p24 antigen value of the untreated control by 90% (IC90) was calculated by using nonparametric regression analysis. The analysis used the median-effect equation, Fa=1/[1+(Dm/D)]^m, where D is the dose, Fa is the fraction affected, and Dm is the dose required to produce the median effect.
Cells were infected with the T-cell tropic isolate HTLV-IIIB for 2 hours, and then cultured in varying concentrations of RV with or without nucleoside analogs. Virus replication was measured by p24 antigen production by ELISA using a standard commercial kit in the culture supernatants on days 7 and 10 after infection.
Activated PBMCs infected with HTLV-IIIB were cultured in the presence of ddI plus HU (100 μM) or RV (5 and 10 μM). […] Virus production in the presence of the different drug concentrations was evaluated on day 7 after infection.

PHA-activated PBMCs = assay: 3H-thymidine incorporation (DNA synthesis) assay in proliferating PBMCs; assay type: cell-based, human; conditions: HU 100 μM; day 2
Protocol: For example, a thymidine incorporation assay using PBMC's may be carried out as follows. PBMC's are suspended, then 0.1 ml (100,000) of cells are added to each designated well of a 96-well plate. The plates are placed into a 37° C., 5% CO2, 95% humid incubator for the predetermined incubation periods—normally 2 and 5 days. At the end of the incubation period, and at a standard time prior to harvesting the plate (6-18 hours), 1.0-1.5 μCi (20 μl of 50-75 mCi/ml in complete medium) of [^3H]-labeled methyl thymidine is added to each well of the assay. The plates are then incubated for the remaining 6-18 hours. At the end of the [^3H]-thymidine pulse, the plates are harvested onto filter paper using a semi-automated multi-well harvester. The filter paper containing bound DNA may be dried using either ethanol or by moderate microwave heating. The filter paper samples are counted in a scintillation counter using standard procedures.

[2] = test system: mutations 65R, 74V, 184V, and 115F in the RT gene; conditions: cited from earlier work
HTLV-IIIB [3] = assay: p24 antigen in infected resting T-lymphocytes exposed to drugs for 6 days before PHA activation; assay type: cell-based, HIV-1; conditions: ddC 0.1 μM or AZT 4 μM in combination with RV
Protocol: The effect of RV and nucleoside analogues in infected resting T-lymphocytes was evaluated in the present example. Purified resting cells were used. Absence of activated lymphocytes in the preparation was determined by incubation of the cells in the presence of a monoclonal antibody directed against the low affinity IL-2 receptor CD25 (Pharmingen, San Diego, Calif.), and subsequent analysis by flow cytometry. […] Cells were infected with HTLV-IIIB at a multiplicity of infection of 10^4 TCID50/10^6 cells for 3 hours. A high multiplicity of infection (m.o.i.) was used because of a reported short half life of HIV-1 unintegrated DNA in infected resting lymphocytes. Infected cells were washed 3 times with PBS to remove virus excess and resuspended in 10% FBS RPMI medium supplemented with drugs. To ensure that any antiviral activity exerted by the drugs occurred during the resting state, drugs were removed six days after infection by washing with PBS 3 times, and cells were activated by culturing in the presence of PHA for 2 days. Cells were then cultured in IL-2 medium without drugs, and supernatants were monitored for the presence of p24 antigen. Cultures were maintained for 20 days.
Purified resting T-lymphocytes from a seronegative donor were infected with HTLV-IIIB at the high multiplicity of infection and cultured in the presence of 5 or 10 μM RV plus ddI (0, 0.25, 0.5 μM), ddC (0, 0.1 μM) or AZT (0, 4 μM) for 6 days. Concentrations used for ddC and AZT correspond to the highest, nontoxic concentration attainable in plasma of treated individuals. […] On day 6 after infection, drugs were washed away and cells were activated with PHA. The extent of viral replication was evaluated on day 6 (prior to PHA activation) and days 14 and 20 after infection. On day 6 very low amounts of p24 antigen could be detected under every condition tested, likely representing residual virus from the infecting inoculum. […] No toxicity was found by the MTT assay in uninfected culture controls treated with 5 μM RV and 0.5 μM ddI for 20 days under the same conditions.

SMILES: NC(=O)NO [HU, Hydroxyurea]
inhibition of proliferation (PHA-stimulated PBMCs): 40 to 50% | reduction of virus production (HTLV-IIIB [1]; HU 100 μM alone, day 7): approximately 20% | inhibition at 100 µM (HTLV-IIIB [1]; Human immunodeficiency virus 1, IIIB, PBMC, 168 h, 100 μM HU combined with 0.5 μM ddI, day 7, read-out: inhibition of virus replication): > 99% | inhibition at 100 µM (HTLV-IIIB [1]; Human immunodeficiency virus 1, IIIB, PBMC, 168 h, 100 μM HU in combination with 0.25 μM ddI, day 7, read-out: inhibition of HIV-1 replication): 91% | 3H-thymidine incorporation (DNA synthesis) (PHA-activated PBMCs): much lower than the untreated control

SMILES: Nc1nc(NC2CC2)c2ncn([C@H]3C=C[C@@H](CO)C3)c2n1 [abacavir, (1C, CiS)-4-(2-amino-6-(cyclopropylamino)—9H-purin-9-yL)-2-cyclopentene-1-methanol sulfate (salt) (2:1)]
resistance to the drug ([2]; mutants harboring 2 or 3 of these mutations): approximately 10 fold | decrease in susceptibility ([2]; single mutations 65R, 74V, 184V, and 115F): 2-3 fold

IC90 (HTLV-IIIB [1]; Human immunodeficiency virus 1, IIIB, PBMC, 168 h, in combination with 5 μM RV, day 7): 15 nM | IC90 (HTLV-IIIB [1]; Human immunodeficiency virus 1, IIIB, PBMC, 168 h, nucleoside analog alone, day 7): 25 nM | reduction of IC90 value (HTLV-IIIB [1]; in combination with 5 μM RV): 1.6 fold | reduction of IC90 value (HTLV-IIIB [1]; in the presence of 10 μM RV): 3.1 fold
SMILES: Cc1cn([C@H]2C[C@H](N=[N+]=[N-])[C@@H](CO)O2)c(=O)[nH]c1=O [AZT, 3′-azido-2′,3′-dideoxythymidine]
virus replication after PHA activation (HTLV-IIIB [3]): failed to suppress virus replication

reduction of IC90 value (HTLV-IIIB [1]; in combination with 5 μM RV): 3.3 fold | IC90 (HTLV-IIIB [1]; in combination with 5 μM RV, day 7): 80 nM | reduction of IC90 value (HTLV-IIIB [1]; in the presence of 10 μM RV): 5.4 fold | IC90 (HTLV-IIIB [1]; nucleoside analog alone, day 7): 270 nM
SMILES: Nc1ccn([C@H]2CC[C@@H](CO)O2)c(=O)n1 [ddC, 2′,3′-dideoxycytosine]
virus replication after PHA activation (HTLV-IIIB [3]): failed to suppress virus replication
